Patent US10010560B2, “Small molecule HSP70 inhibitors” (THE TRUSTEES OF THE UNIVERSITY OF PENNSYLVANIA, priority 2014, dated 2018)

Legend:
Experiment in all cases: ITC, mutated full-length ADP-HSP70
Format in all cases: binding
ADP-HSP70 D506A = target: T1, ADP-HSP70 D506A (Homo sapiens, UniProt P0DMV8, D506A/E110D); details: ADP-HSP70 mutant D506A
T1 construct: The full-length HSP70 and DnaK mutants were constructed by PCR-based site-directed mutagenesis; His6 (N); made in house; host or cells: E. coli BL21 Star (DE3)
Description: (§1) The human stress-inducible HSP70 (residues 1-641 or 386-616 of SEQ ID NO: 2) and E. coli DnaK (residues 1-638, 389-607, or 393-507 of SEQ ID NO: 4) were cloned into the pET25 vector (EMD Millipore Chemicals, Inc., Billerica, Mass., USA) between the NdeI and XhoI restriction sites. The full-length HSP70 and DnaK mutants were constructed by PCR-based site-directed mutagenesis using the QuikChange™ Site-Directed Mutagenesis Kit (Agilent Technologies, Inc., Santa Clara, Calif., USA). All plasmid inserts were verified by DNA sequencing. All HSP70 and DnaK variants were produced with a N-terminal His6-tag in the E. coli BL21 Star (DE3) strain (Invitrogen catalog number C6010-03). The resulting strains were grown at 37° C. in LB medium containing 50 μg/mL of carbenicillin (Sigma-Aldrich Co., St. Louis, Mo., USA). At an OD600 about 0.3 to about 0.5, protein expression was induced with 0.5 mM isopropyl-β-D-thiogalactopyranoside (IPTG), and cells were subsequently grown at 25° C. for about 16 h. Cells were collected by centrifugation and resuspended in the Bugbuster® Master Mix (EMD Millipore Chemicals catalog number 71456-4), supplemented with protease inhibitors, 1 mM diethiothreitol (DTT) and 20 mM imidazole. The His6-tagged fusion proteins were isolated on Ni^2+-chelating resins (Ni-NTA Superflow, Qiagen catalog number 30410) by standard procedures. When necessary, size-exclusion chromatography on a Superdex® 200 or a Superose® 6 10/300 GL columns (GE Healthcare) analytical column pre-equilibrated with 1× Dulbecco's Phosphate Buffered Saline (DPBS—Invitrogen 14190-136), 1 mM Tris-HCl (pH 7.4) or 10 mM Tris-HCl (pH 7) was used as the final purification step. The purified DnaK proteins were dialyzed thoroughly against 1× DPBS with 5 mM DTT at 4° C., for crystallization trials involving the small molecule inhibitor PET-16. For isothermal titration calorimetry studies, all HSP70 and DnaK variants were dialyzed extensively against the buffers as noted below under the section entitled “Isothermal Titration calorimetry Studies”. The dialyzed proteins were subsequently microcentrifugated at 15,000×g for 5 min at 4° C. and aliquots of the soluble proteins were stored at −80° C.
(§2) All ITC experiments were performed using a MicroCal VP-ITC isothermal titration calorimeter (MicroCal). Both full-length HSP70 and DnaK proteins and DnaK (aa 393-507) proteins were prepared in 1 mM Tris-HCl (pH 7.4) buffer containing 3% dimethylsulfoxide (DMSO). The HSP70 (aa 386-616) protein was prepared in buffer containing 3% DMSO and 10 mM Tris-HCl, pH 7. The syringe was loaded with purified protein in either 1 mM Tris-HCl (pH 7.4) buffer containing 3% DMSO or 10 mM Tris-HCl (pH 7) buffer containing 3% DMSO. The sample cell of the calorimeter was loaded with PES, PET-16 or NRLLLTG (SEQ ID NO: 7) prepared in the same buffer. All solutions were degassed for 5 min.
(§3) The titrations involving the full-length purified proteins were performed at 25° C. with injection volumes of 12 μL and a spacing of 300 s. The titrations involving the purified HSP70 (aa 386-616) and DnaK (aa 393-507) were performed at 42° C. with injection volumes of 12 μL and a spacing of 300 s. Heat from the pre-injection was not used during fitting. The data were fit using a one-site binding model available in the Origin® ITC data analysis software (MicroCal Origin® V5.0, MicroCal Software, Northampton, Mass.). Error values obtained from the MicroCal Origin® V5.0 software were averaged and reported.
(§4) The information from crystal structure analysis pointed to particular amino acid residues as potential contact sites for interaction with PET-16. Single point mutants were thereby introduced in the context of a full-length DnaK protein, as well as at the corresponding residues within HSP70; these mutant proteins were analyzed by ITC for ability to bind to PET-16. The DnaK mutations included residues L392D, P396L, L399R, G482D, A503D and […]; those in HSP70 were L394D, P398L, L401R, G484D, N505D and D506A. […]

ADP-HSP70 G484D = target: T2, ADP-HSP70 G484D (Homo sapiens, UniProt P0DMV8, E110D/G484D); details: ADP-HSP70 mutant G484D
T2 construct: The full-length HSP70 and DnaK mutants were constructed by PCR-based site-directed mutagenesis; His6 (N); made in house; host or cells: E. coli BL21 Star (DE3)
Description: as §1, §2, §3, §4

ADP-HSP70 L394D = target: T3, ADP-HSP70 L394D (Homo sapiens, UniProt P0DMV8, E110D/L394D); details: ADP-HSP70 mutant L394D
T3 construct: The full-length HSP70 and DnaK mutants were constructed by PCR-based site-directed mutagenesis; His6 (N); made in house; host or cells: E. coli BL21 Star (DE3)
Description: as §1, §2, §3, §4

ADP-HSP70 L401R = target: T4, ADP-HSP70 L401R (Homo sapiens, UniProt P0DMV8, E110D/L401R); details: ADP-HSP70 mutant L401R
T4 construct: The full-length HSP70 and DnaK mutants were constructed by PCR-based site-directed mutagenesis; His6 (N); made in house; host or cells: E. coli BL21 Star (DE3)
Description: as §1, §2, §3, §4

ADP-HSP70 N505D = target: T5, ADP-HSP70 N505D (Homo sapiens, UniProt P0DMV8, E110D/N505D); details: ADP-HSP70 mutant N505D
T5 construct: The full-length HSP70 and DnaK mutants were constructed by PCR-based site-directed mutagenesis; His6 (N); made in house; host or cells: E. coli BL21 Star (DE3)
Description: as §1, §2, §3, §4

ADP-HSP70 P398L = target: T6, ADP-HSP70 P398L (Homo sapiens, UniProt P0DMV8, E110D/P398L); details: ADP-HSP70 mutant P398L
T6 construct: The full-length HSP70 and DnaK mutants were constructed by PCR-based site-directed mutagenesis; His6 (N); made in house; host or cells: E. coli BL21 Star (DE3)
Description: as §1, §2, §3, §4

T2 sequence (P0DMV8 whole entry E110D/G484D): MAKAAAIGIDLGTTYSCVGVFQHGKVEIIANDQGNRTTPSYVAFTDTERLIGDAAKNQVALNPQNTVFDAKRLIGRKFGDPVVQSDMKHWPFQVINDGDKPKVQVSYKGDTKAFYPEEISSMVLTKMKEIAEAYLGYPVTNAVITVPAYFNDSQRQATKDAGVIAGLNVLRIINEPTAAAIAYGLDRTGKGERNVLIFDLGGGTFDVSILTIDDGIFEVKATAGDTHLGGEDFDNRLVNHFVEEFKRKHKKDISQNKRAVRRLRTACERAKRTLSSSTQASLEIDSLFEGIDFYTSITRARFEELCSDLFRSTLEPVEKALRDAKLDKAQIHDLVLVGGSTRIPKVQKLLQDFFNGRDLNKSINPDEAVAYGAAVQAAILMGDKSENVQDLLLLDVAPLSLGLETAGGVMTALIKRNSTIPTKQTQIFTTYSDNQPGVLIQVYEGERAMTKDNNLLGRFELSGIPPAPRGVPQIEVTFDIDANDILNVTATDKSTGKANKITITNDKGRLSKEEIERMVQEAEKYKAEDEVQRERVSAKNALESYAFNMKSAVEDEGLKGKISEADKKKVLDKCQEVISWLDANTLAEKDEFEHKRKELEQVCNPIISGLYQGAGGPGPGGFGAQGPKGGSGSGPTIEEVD
T3 sequence (P0DMV8 whole entry E110D/L394D): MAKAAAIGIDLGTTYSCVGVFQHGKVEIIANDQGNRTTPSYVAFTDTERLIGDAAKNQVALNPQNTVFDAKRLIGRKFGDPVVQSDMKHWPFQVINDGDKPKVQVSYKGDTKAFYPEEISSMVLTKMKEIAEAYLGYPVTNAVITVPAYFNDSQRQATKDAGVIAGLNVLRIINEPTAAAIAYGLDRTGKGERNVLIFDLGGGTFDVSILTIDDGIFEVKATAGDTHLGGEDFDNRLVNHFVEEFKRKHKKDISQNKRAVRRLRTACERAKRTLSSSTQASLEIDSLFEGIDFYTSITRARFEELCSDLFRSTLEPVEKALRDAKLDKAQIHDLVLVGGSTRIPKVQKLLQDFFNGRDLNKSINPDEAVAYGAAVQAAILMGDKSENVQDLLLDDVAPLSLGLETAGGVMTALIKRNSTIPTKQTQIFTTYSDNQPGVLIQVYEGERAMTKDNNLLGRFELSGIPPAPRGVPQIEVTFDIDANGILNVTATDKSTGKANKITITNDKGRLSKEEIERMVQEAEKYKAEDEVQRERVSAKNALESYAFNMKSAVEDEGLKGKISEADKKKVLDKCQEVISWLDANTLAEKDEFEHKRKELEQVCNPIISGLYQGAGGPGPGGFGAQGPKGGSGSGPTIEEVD
T5 sequence (P0DMV8 whole entry E110D/N505D): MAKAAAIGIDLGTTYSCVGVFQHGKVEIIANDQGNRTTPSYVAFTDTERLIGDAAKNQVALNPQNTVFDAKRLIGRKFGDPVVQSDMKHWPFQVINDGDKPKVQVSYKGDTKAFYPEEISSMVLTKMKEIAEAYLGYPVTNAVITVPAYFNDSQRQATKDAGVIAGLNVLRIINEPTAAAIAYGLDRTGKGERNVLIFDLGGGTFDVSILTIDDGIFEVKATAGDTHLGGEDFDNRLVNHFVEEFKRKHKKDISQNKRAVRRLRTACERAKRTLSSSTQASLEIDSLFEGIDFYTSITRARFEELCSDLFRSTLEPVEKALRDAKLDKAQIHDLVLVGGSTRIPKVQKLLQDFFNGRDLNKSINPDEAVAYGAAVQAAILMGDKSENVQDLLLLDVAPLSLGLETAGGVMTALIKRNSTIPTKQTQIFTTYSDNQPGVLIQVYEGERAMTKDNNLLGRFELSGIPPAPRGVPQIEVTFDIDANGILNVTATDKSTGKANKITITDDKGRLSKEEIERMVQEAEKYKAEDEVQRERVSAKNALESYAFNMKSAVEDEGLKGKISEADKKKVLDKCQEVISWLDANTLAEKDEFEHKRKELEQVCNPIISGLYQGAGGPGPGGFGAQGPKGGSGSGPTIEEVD
T6 sequence (P0DMV8 whole entry E110D/P398L): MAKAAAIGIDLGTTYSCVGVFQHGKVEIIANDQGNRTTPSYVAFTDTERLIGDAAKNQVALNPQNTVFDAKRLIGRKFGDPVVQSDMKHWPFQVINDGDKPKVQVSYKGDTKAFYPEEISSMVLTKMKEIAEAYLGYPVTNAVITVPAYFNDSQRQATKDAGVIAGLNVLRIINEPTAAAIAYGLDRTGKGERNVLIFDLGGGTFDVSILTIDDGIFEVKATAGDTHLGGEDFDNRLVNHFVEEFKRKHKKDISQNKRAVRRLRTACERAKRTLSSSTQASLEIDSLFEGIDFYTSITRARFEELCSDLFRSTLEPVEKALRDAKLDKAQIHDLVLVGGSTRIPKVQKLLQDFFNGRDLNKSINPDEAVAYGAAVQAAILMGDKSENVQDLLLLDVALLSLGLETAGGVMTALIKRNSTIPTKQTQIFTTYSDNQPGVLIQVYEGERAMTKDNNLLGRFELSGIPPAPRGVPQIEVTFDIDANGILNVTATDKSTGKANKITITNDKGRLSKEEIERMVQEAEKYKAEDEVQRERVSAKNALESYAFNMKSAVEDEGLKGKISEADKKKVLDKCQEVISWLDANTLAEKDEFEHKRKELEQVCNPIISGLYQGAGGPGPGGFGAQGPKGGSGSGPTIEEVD
T4 sequence (P0DMV8 whole entry E110D/L401R): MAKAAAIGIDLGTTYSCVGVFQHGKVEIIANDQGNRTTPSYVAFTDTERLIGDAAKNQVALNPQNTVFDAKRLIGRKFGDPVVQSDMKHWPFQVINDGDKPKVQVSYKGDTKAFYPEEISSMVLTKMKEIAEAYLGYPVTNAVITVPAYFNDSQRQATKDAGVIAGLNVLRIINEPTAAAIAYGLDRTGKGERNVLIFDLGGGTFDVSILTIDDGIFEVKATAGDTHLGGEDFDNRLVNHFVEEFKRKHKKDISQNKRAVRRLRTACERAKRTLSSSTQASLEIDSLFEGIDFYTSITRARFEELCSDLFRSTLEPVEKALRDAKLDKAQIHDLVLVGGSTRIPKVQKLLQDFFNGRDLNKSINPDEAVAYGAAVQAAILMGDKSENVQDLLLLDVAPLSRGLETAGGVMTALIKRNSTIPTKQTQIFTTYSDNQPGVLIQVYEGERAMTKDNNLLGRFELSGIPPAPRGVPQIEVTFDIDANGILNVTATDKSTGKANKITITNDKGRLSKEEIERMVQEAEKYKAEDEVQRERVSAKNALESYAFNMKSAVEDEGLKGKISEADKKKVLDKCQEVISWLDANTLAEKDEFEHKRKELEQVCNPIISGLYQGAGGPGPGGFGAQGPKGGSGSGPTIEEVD
T1 sequence (P0DMV8 whole entry E110D/D506A): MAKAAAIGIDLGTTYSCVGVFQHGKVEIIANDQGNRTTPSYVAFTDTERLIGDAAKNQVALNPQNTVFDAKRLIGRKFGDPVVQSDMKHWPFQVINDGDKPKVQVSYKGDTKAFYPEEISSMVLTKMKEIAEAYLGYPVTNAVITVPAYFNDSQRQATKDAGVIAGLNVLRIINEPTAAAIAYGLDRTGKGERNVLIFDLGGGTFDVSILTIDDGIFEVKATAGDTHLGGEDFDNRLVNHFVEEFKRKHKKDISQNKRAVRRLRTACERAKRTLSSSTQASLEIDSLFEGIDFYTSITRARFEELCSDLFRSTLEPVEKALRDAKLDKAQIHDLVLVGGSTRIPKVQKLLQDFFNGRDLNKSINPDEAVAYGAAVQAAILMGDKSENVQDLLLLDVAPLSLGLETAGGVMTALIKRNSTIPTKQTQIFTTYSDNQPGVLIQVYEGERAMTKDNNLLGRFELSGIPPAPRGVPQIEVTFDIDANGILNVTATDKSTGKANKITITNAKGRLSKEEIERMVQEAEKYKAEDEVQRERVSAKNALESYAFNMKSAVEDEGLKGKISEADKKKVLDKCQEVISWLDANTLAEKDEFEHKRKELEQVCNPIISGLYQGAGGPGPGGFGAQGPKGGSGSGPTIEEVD

Work on `C(#C[P+](c1ccccc1)(c1ccccc1)c1ccccc1)c1ccccc1.[Br-]` [PET-16, triphenyl(phenylethynyl)phosphonium bromide] yielded a Kd (ADP-HSP70 D506A) of 112 ± 3.8 µM, a Kd (ADP-HSP70 G484D) of 98.8 ± 5.1 µM and a Kd (ADP-HSP70 L394D) of 30.8 ± 0.6 µM. It also gave a Kd (ADP-HSP70 L401R) of 43.2 ± 9.9 µM, a Kd (ADP-HSP70 N505D) of 147 ± 6.5 µM and a Kd (ADP-HSP70 P398L) of 23.4 ± 1.2 µM.
